The results in this text go back to PubChem BioAssay (NCI).

Common to all, as to experiment: NCI tumour cell line growth inhibition, 48 h
Assay [1] concerns NCI-H522 lung.
For assay [2], the system named is SF-295 CNS.
Assay [3] deals with MOLT-4 leukemia.
Assay [4] concerns EKVX NSCLC.
For assay [5], the system named is DU-145 prostate.
Assay [6] concerns A549 NSCLC.
Assay [7] concerns HCT-116 colon.
The subject of assay [8] is OVCAR-3 ovarian.
Assay [9] relates to HCT-15 colon.
Assay [10] concerns CAKI-1 renal.

Molecules are shown by their SMILES.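 Values below derive from 48-hour exposures of cells grown in 96-well plates, with endpoints linearly interpolated between the two concentrations bracketing the appropriate inhibition level. Here, GI50 denotes the concentration required for 50% inhibition of growth. TGI: concentration producing complete growth inhibition.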 Where only a bound is given, the exact number is not on record here.

As for `OC1CCCC2CCC[N-]C12.OC1CCCC2CCC[N-]C12.[O]=[V][OH]` (stereo not given), the GI50 in assay [1] is 0.743 µM; in [2], 9.84 µM; in assay [3] it was 1.23 µM; in assay [4], 3.62 µM; in [5] it was 19.7 µM; in [6], 5.23 µM. The GI50 was 2.66 µM in assay [7], 0.359 µM in assay [8], 0.789 µM in assay [9] and 21.9 µM in assay [10]. Also, the TGI in [1] is 25.7 µM; in [2], 76.9 µM; in assay [3], 10.6 µM; in [4] it was 22.8 µM; in assay [5], over 100 µM; in [6], over 100 µM. The TGI in [7] came out at 11.5 µM; in assay [8], 2.27 µM; in assay [9], 12.5 µM; in [10], 85.3 µM.
For the molecule `CC(=O)Nc1cc2cc(NS(=O)(=O)c3ccc(Cl)c(Cl)c3)ccc2oc1=O`, the TGI in assay [1] was 63.6 µM; in assay [2] it was 44.5 µM; in assay [3], over 100 µM; in assay [4], over 100 µM; in [5], over 100 µM; in assay [6], over 100 µM. The TGI in [7] is 82.2 µM; in [8], over 100 µM; in [9], over 100 µM; in [10] it was 56.4 µM.
As for `CCCc1nc(Cl)c(Cl)c(Cl)n1`, the TGI was 30.5 µM in assay [1]; over 100 µM in assay [2]; 46.9 µM in assay [3]; 43.7 µM in [4]; over 100 µM in assay [5]; over 100 µM in assay [6]. In addition, the TGI in assay [7] was 26.8 µM; in assay [8], 18.7 µM; in assay [9], over 63.7 µM; in [10], 27.7 µM.
Turning to `COc1cc(-c2nc3ccccc3o2)cc(CN2CCCCC2)c1O`, the GI50 in assay [1] is 3.26 µM; in assay [2], 1.85 µM; in [3] it was 4.99 µM; in [4], 12.3 µM; in assay [5] it was 1.82 µM; in assay [6] it was 1.63 µM. Also, the GI50 was 4.27 µM in assay [7], 2.75 µM in assay [8], 1.05 µM in assay [9] and 14.3 µM in assay [10]. Also, the TGI in assay [1] was 14.2 µM; in assay [2], 6.6 µM; in assay [3], 37.4 µM; in assay [4] it was over 100 µM; in assay [5], 3.33 µM; in assay [6], 4.12 µM. In addition, the TGI in assay [7] is 35.4 µM; in assay [8], 39.7 µM; in assay [9], 26 µM; in assay [10], over 100 µM.
Take `Cc1c2ccncc2c(C)c2c1sc1ccccc12`: the TGI was 23.1 µM in [1]; 26.4 µM in assay [2]; 7.28 µM in [3]; 25.2 µM in assay [4]; 29.7 µM in assay [5]; 18.3 µM in assay [6]. Moreover, the TGI worked out at 15.8 µM in assay [7], 29.6 µM in [8], 31 µM in assay [9] and 27.9 µM in assay [10].
For `CN(C)Cc1ccc(NC(=O)c2cncc(C#Cc3cnc(N)c4ncccc34)c2)cc1F`, the GI50 in assay [1] is 17.2 µM; in assay [2] it was 10.6 µM; in [3] it was 2.21 µM; in assay [4] it was 2 µM; in [5] it was 1.77 µM; in assay [6] it was 2.57 µM. Further, the GI50 in assay [7] was 1.8 µM; in assay [8], 2.07 µM; in [9], 1.73 µM; in assay [10] it was 15.8 µM. Besides, the TGI in [1] is 53.9 µM; in assay [2], 26.5 µM; in assay [3], 5.3 µM; in assay [4], 4.01 µM; in assay [5], 3.32 µM; in assay [6], 7.11 µM. In addition, the TGI in [7] is 3.48 µM; in assay [8], 3.68 µM; in assay [9], 3.35 µM; in assay [10], 32.3 µM.
As for `CCCCOc1ccc(/C=N/Nc2cc(C)nc3ccc(Br)cc23)cc1`, the GI50 in assay [1] is 1.72 µM; in assay [2] it was 1.82 µM; in assay [3] it was 1.91 µM; in [4] it was 1.63 µM; in assay [5], 1.94 µM; in [6], 1.88 µM. Moreover, the GI50 was 1.77 µM in assay [7], 2.06 µM in assay [8], 1.61 µM in [9] and 1.71 µM in assay [10]. Moreover, the TGI in assay [1] is 3.21 µM; in assay [2], 3.36 µM; in assay [3], 4.11 µM; in [4], 3.03 µM; in assay [5], 3.87 µM; in assay [6], 3.52 µM. The TGI in assay [7] was 3.31 µM; in assay [8], 3.84 µM; in assay [9] it was 3.05 µM; in assay [10], 3.11 µM.
Consider `COc1ccc(-c2cn(-c3ccc(OC)c(OC)c3)c(=O)[nH]2)cc1`, for which the GI50 in assay [1] is over 100 µM; in [2] it was over 100 µM; in assay [3], 1.72 µM; in assay [4] it was over 100 µM; in assay [5], over 100 µM; in assay [6] it was over 100 µM. Further, the GI50 in [7], in [8], in assay [9] and in assay [10] was over 100 µM throughout. The TGI in assay [1], in [2], in assay [3], in [4], in [5] and in assay [6] was over 100 µM throughout. The TGI in assay [7], in [8], in assay [9] and in assay [10] was over 100 µM throughout.
Turning to `COc1cc2c(c(OC)c1OC)-c1ccc(SC)c(=O)cc1[C@@H](NC(=O)C(F)(F)F)CC2`, the TGI in assay [1] is under 0.01 µM; in [2], under 0.01 µM; in assay [3], over 27.2 µM; in [4], over 100 µM; in [5], over 100 µM; in assay [6] it was over 100 µM. The TGI in [7] was 4.42 µM; in assay [8], 1.3 µM; in [9] it was over 15.8 µM; in [10] it was 10.3 µM.
